One block for each compound: values may come before it.
Columns and labels:
A-375 = test: Antiproliferative activity against human A375 cells; format: functional
DLD-1 = test: Antiproliferative activity against human DLD1 cells; format: functional
HCT-116 [1] = test: Antiproliferative activity against human HCT116 cells; format: functional
HT-29 = test: Antiproliferative activity against human HT29 cells; format: functional
CWR22R = test: Antiproliferative activity against human CWR22Rv1 cells; format: functional; conditions: 22Rv1
DU-145 = test: Antiproliferative activity against human DU145 cells; format: functional
PC-3 = test: Antiproliferative activity against human PC3 cells; format: functional
A549 = test: Antiproliferative activity against human A549 cells; format: functional
NCI-H1299 = test: Antiproliferative activity against human H1299 cells; format: functional
MDA-MB-231 = test: Antiproliferative activity against human […] cells; format: functional
HeLa = test: Antiproliferative activity against human HeLa-S3 cells; format: functional
HT-1080 = test: Antiproliferative activity against human HT1080 cells; format: functional
BXPC-3 = test: Antiproliferative activity against human BxPC3 cells; format: functional
NALM-6 = test: Antiproliferative activity against human Nalm6 cells; format: functional
P12-Ichikawa = test: Antiproliferative activity against human P12 cells; format: functional
[2] = Cmax in Balb/C mouse at 0.5 mg/kg, iv and 2 mg/kg, ip; format: ADME, organism-based; conditions: in vivo
[3] = Clearance in Balb/C mouse at 0.5 mg/kg, iv and 2 mg/kg, ip; format: ADME, organism-based; conditions: in vivo
[4] = AUC in Balb/C mouse at 0.5 mg/kg, iv and 2 mg/kg, ip; format: ADME, organism-based; conditions: plasma
[5] = Alpha half life in Balb/C mouse at 0.5 mg/kg, iv and 2 mg/kg, ip; format: ADME, organism-based; conditions: in vivo
[6] = Beta half life in Balb/C mouse at 0.5 mg/kg, iv and 2 mg/kg, ip; format: ADME, organism-based; conditions: in vivo, read-out: beta t1/2
[7] = Bioavailability in Balb/C mouse at 0.5 mg/kg, iv and 2 mg/kg, ip; format: ADME, organism-based; conditions: in vivo
HCT-116 [8] = test: Antitumor activity against human HCT116 cells transplanted in mouse at 2.5 mg/kg, ip; format: functional; conditions: HCT-116, ip, route intraperitoneal, read-out: TGI
Mus musculus [9] = test: Toxicity in mouse at 1.25 mg/kg, ip assessed as loss of body weight; format: organism-based; set-up: dose 1.25 mg/kg, route intraperitoneal; conditions: in vivo
Mus musculus [10] = test: Toxicity in mouse at 2.5 mg/kg, ip assessed as loss of body weight; format: organism-based; set-up: dose 2.5 mg/kg, route intraperitoneal; conditions: in vivo
HCT-116 [11] = test: Antitumor activity against human HCT116 cells transplanted in mouse at 1.25 mg/kg, ip; format: functional; conditions: HCT-116, ip, route intraperitoneal, read-out: TGI

Structure (SMILES): COc1c(C)c(OC)c2c(c1O)[C@@H]1[C@@H]3Cc4c(OC)c(C)c(OC)c(O)c4[C@H](CNC(=O)c4ccc5ccccc5n4)N3[C@@H](C#N)[C@H](C2)N1C
GI50 (A-375): 1.3 nM
GI50 (DLD-1): 8.1 nM
GI50 (HCT-116 [1]): 5.8 nM
GI50 (HT-29): 7.5 nM
GI50 (CWR22R): 1.1 nM
GI50 (DU-145): 6.9 nM
GI50 (PC-3): 6.2 nM
GI50 (A549): 10.7 nM
GI50 (NCI-H1299): 6.2 nM
GI50 (MDA-MB-231): 4.5 nM
GI50 (HeLa): 6.6 nM
GI50 (HT-1080): 5 nM
GI50 (BXPC-3): 5.8 nM
GI50 (NALM-6): 0.6 nM
GI50 (P12-Ichikawa): 1.9 nM
Cmax [2]: 1100 nM
clearance [3]: 72 mL/min/kg
AUC [4]: 0.167 µM·h
half-life [5]: 3.5 min
half-life [6]: 17 min
bioavailability [7]: 46%

Structure (SMILES): COc1c(C)c(OC)c2c(c1O)[C@@H]1[C@@H]3Cc4c(OC)c(C)c(OC)c(O)c4[C@H](CNC(=O)c4ccc(CNS(=O)(=O)c5cccc6c(N(C)C)cccc56)cc4)N3[C@@H](C#N)[C@H](C2)N1C
GI50 (HCT-116 [1]): 201 nM

Structure (SMILES): COC1=C(C)C(=O)C2=C(C1=O)[C@@H]1[C@@H]3CC4=C(C(=O)C(OC)=C(C)C4=O)[C@H](CNC(=O)c4cc5cc(OC6CCOCC6)ccc5o4)N3[C@@H](C#N)[C@H](C2)N1C
GI50 (DLD-1): 26.5 nM
GI50 (HCT-116 [1]): 17.3 nM
GI50 (PC-3): 16.5 nM

Now from value to compound, other results behind:

GI50 (DLD-1): 10.4 nM
GI50 (HCT-116 [1]): 5.5 nM
GI50 (PC-3): 5 nM
GI50 (A549): 20.6 nM
Structure (SMILES): COc1c(C)c(OC)c2c(c1O)[C@@H]1[C@@H]3Cc4c(OC)c(C)c(OC)c(O)c4[C@H](CNC(=O)c4cc5cc(OC6CCOCC6)ccc5o4)N3[C@@H](O)[C@H](C2)N1C

GI50 (HCT-116 [1]): 5.5 nM
Structure (SMILES): COc1c(C)c(OC)c2c(c1O)[C@@H]1[C@@H]3Cc4c(OC)c(C)c(OC)c(O)c4[C@H](CNC(=O)c4cc5ccccc5o4)N3[C@@H](C#N)[C@H](C2)N1C

GI50 (HCT-116 [1]): > 300 nM
Structure (SMILES): COc1c(C)c(OC)c2c(c1O)[C@@H]1[C@@H]3Cc4c(OC)c(C)c(OC)c(O)c4[C@H](CNC(=O)c4cc5cc(OC6CCOCC6)ccc5o4)N3C[C@H](C2)N1C

GI50 (DLD-1): 22.4 nM
GI50 (HCT-116 [1]): 8.1 nM
GI50 (PC-3): 11.7 nM
GI50 (A549): 57.5 nM
Structure (SMILES): COc1c(C)c(OC)c2c(c1O)[C@@H]1[C@@H]3Cc4c(OC)c(C)c(OC)c(O)c4[C@H](CNC(=O)c4cc5cc(OCCN6CCOCC6)ccc5o4)N3[C@@H](C#N)[C@H](C2)N1C

GI50 (DLD-1): 8.3 nM
GI50 (HCT-116 [1]): 3.2 nM
GI50 (PC-3): 2.7 nM
GI50 (A549): 18.9 nM
Cmax [2]: 3700 nM
clearance [3]: 45 mL/min/kg
AUC [4]: 0.483 µM·h
half-life [5]: 3 min
half-life [6]: 25 min
bioavailability [7]: 38%
Structure (SMILES): COc1c(C)c(OC)c2c(c1O)[C@@H]1[C@@H]3Cc4c(OC)c(C)c(OC)c(O)c4[C@H](CNC(=O)c4cc5cc(OC6CCOCC6)ccc5o4)N3[C@@H](C#N)[C@H](C2)N1C
inhibition in vivo at 2.5 mg/kg (HCT-116 [8]): 96%
Activity (Mus musculus [9]): Active
Activity (Mus musculus [10]): Active
inhibition in vivo at 1.25 mg/kg (HCT-116 [11]): 68%

Source: ChEMBL document CHEMBL1149475, “Evaluation of antitumor properties of novel saframycin analogs in vitro and in vivo” (Bioorg Med Chem Lett, 2006)
